From the Deep4Chem optical property database
Blank lines part the entries; values can stand above or below the compound they belong to.

Experiment: solvent given as SMILES

Structure (SMILES): CCCCCCN(CCCCCC)c1ccc(C#Cc2ccc(-c3ccc(C#Cc4ccc(N(CCCCCC)CCCCCC)cc4)cc3)cc2)cc1
absorption maximum (in Cc1ccccc1): 374 nm

absorption maximum (in ClC(Cl)Cl): 377 nm
Structure (SMILES): CC(C)(C)NC(=O)c1ccc2ccc3cccc4ccc1c2c34

absorption maximum (in ClCCl): 731 nm
Structure (SMILES): COc1ccc(/C2=C3N=C(C(c4ccccc4)=C/3c3ccccc3)/C(c3ccc(OC)cc3)=c3\[nH]/c(c(-c4ccccc4)c3-c3ccccc3)=C(/c3ccc(OC)cc3)C3=N/C(=C(/c4ccc(OC)cc4)c4[nH]c2c(-c2ccccc2)c4-c2ccccc2)C(c2ccccc2)=C3c2ccccc2)cc1

absorption maximum (in CC#N): 479 nm | absorption maximum (in CCCCCC): 523 nm | absorption maximum (in CCOC(C)=O): 497 nm | absorption maximum (in CO): 488 nm | absorption maximum (in ClCCl): 505 nm
Structure (SMILES): F[B-]1(F)n2c(Cl)ccc2C(c2c(Cl)cccc2Cl)=C2C=CC(NCc3ccccc3)=[N+]21

absorption maximum (in ClCCl): 499 nm
Structure (SMILES): CCN(CC)c1c2ccc(=[N+]3CCCCC3)cc-2oc2cc(N3CCCCC3)ccc12

absorption maximum (in ClCCl): 325 nm
Structure (SMILES): C(#Cc1cccs1)c1ncc(-c2ccccc2)o1

absorption maximum (in C1COCCO1): 378 nm
Structure (SMILES): COc1ccc(C2=N/C(=C\c3ccccc3)C(=O)O2)cc1OC

absorption maximum (in ClC(Cl)Cl): 357 nm
Structure (SMILES): COc1ccc(-c2nc(-c3ccccc3)c(N(c3ccccc3)c3ccccc3)s2)cc1

Structure (SMILES): c1ccc2c(c1)CCc1ccccc1N2c1c2ccccc2cc2ccccc12
absorption maximum (in Cc1ccccc1): 426 nm

absorption maximum (in CO): 490 nm
Structure (SMILES): CCN(CC)c1ccc(C=Cc2nc3nc4ccccc4nc3s2)cc1

absorption maximum (in C1COCCO1): 538 nm | absorption maximum (in CN(C)C=O): 543 nm | absorption maximum (in CS(C)=O): 546 nm
Structure (SMILES): CC(C)(C)NS(=O)(=O)c1ccc2c(c1)C(=O)/C(=C1\Sc3ccc(S(=O)(=O)NC(C)(C)C)cc3C1=O)S2

absorption maximum (in CC#N): 356 nm | absorption maximum (in ClCCl): 358 nm
Structure (SMILES): Cc1cc(O)c(C(=O)/C=C/c2ccccc2)c(=O)o1

absorption maximum (in ClCCl): 402 nm
Structure (SMILES): COc1cc(OC)cc(C2=[O+][B-](F)(F)OC(c3ccc4ccccc4c3)=C2)c1

absorption maximum (in O): 589 nm
Structure (SMILES): O=S(=O)([O-])c1cc(S(=O)(=O)Cl)ccc1C1=c2cc3c4c(c2Oc2c1cc1c5c2CCCN5CCC1)CCC[N+]=4CCC3

Structure (SMILES): CC(C)(C)c1ccc(/C=C/c2ccc(N(c3ccc(/C=C/c4ccc(C(C)(C)C)cc4)cc3)c3ccc(-c4nc5ccccc5nc4-c4ccc(N(c5ccc(/C=C/c6ccc(C(C)(C)C)cc6)cc5)c5ccc(/C=C/c6ccc(C(C)(C)C)cc6)cc5)cc4)cc3)cc2)cc1
absorption maximum (in C1CCOC1): 375 nm | absorption maximum (in Cc1ccccc1): 373 nm

absorption maximum (in CC#N): 321 nm
Structure (SMILES): COc1ccc(-n2nc(C#N)c(N3CCN(c4ccccn4)CC3)n2)cc1

absorption maximum (in ClC(Cl)Cl): 703 nm
Structure (SMILES): O=C1c2ccc3c4c(NC5CCCCC5)cc5c6c(ccc(c7c(NC8CCCCC8)cc(c2c37)C(=O)N1C1CCCCC1)c64)C(=O)N(C1CCCCC1)C5=O

absorption maximum (in ClCCl): 368 nm
Structure (SMILES): Fc1ccc(C#Cc2c(C#Cc3ccc(F)cc3)c(C#Cc3ccc(F)cc3)c(C#Cc3ccc(F)cc3)c(C#Cc3ccc(F)cc3)c2C#Cc2ccc(F)cc2)cc1

absorption maximum (in ClCCl): 633 nm
Structure (SMILES): CCCCCCn1c(=O)c2c3nc4cc5sc6c(nc5cc4sc3c3c(=O)n(CCCCCC)c(=O)c3c2c1=O)c1c(=O)n(CCCCCC)c(=O)c1c1c(=O)n(CCCCCC)c(=O)c61

absorption maximum (in c1ccccc1): 404 nm
Structure (SMILES): COc1ccc2ccc3oc(=O)c(-c4ccccc4)nc3c2c1

absorption maximum (in ClCCl): 254 nm
Structure (SMILES): Cn1nc(-c2ccccc2)cc1-c1ccccc1

absorption maximum (in CC#N): 348 nm | absorption maximum (in CCCCCC): 350 nm | absorption maximum (in CO): 346 nm | absorption maximum (in c1ccccc1): 356 nm
Structure (SMILES): O=c1oc2cc3ccccc3cc2nc1-c1ccccc1

absorption maximum (in CC#N): 362 nm
Structure (SMILES): O=C(O)c1ccc(-c2ccc(-c3nc(-c4ccccc4)c4ccccn34)cc2)s1

absorption maximum (in ClCCl): 708 nm
Structure (SMILES): FC(F)(F)c1ccc(/C2=C3N=C(C(c4ccccc4)=C/3c3ccccc3)/C(c3ccc(C(F)(F)F)cc3)=c3\[nH]/c(c(-c4ccccc4)c3-c3ccccc3)=C(/c3ccc(C(F)(F)F)cc3)C3=N/C(=C(/c4ccc(C(F)(F)F)cc4)c4[nH]c2c(-c2ccccc2)c4-c2ccccc2)C(c2ccccc2)=C3c2ccccc2)cc1

absorption maximum (in CC#N): 349 nm
Structure (SMILES): Cc1ccc(-c2ccc(/C=C/c3ccc([N+](=O)[O-])cc3)cn2)nc1

absorption maximum (in CO): 584.58 nm
Structure (SMILES): c1ccc(C2CSC(c3c4ccc(=[N+]5CCCCC5)cc-4oc4cc(N5CCCCC5)ccc34)SC2)cc1 (centres undefined)

Structure (SMILES): CCCC1=Cc2nc1ccc1[nH]c(cc1CCC)c1nc(c(OC)cc3[nH]c2cc3CCC)C(CCC)=C1
absorption maximum (in Cc1ccccc1): 682 nm

absorption maximum (in C1CCOC1): 451 nm | absorption maximum (in CC#N): 440 nm | absorption maximum (in CC(C)O): 452 nm | absorption maximum (in CCO): 451 nm | absorption maximum (in CN(C)C=O): 452 nm | absorption maximum (in CO): 447 nm | absorption maximum (in CS(C)=O): 456 nm | absorption maximum (in O): 460 nm | absorption maximum (in OCC(O)CO): 464 nm
Structure (SMILES): CC(=O)c1ccc2ccc3c(NCCC(=O)NCCCCCCc4nc5c(=O)[nH]c(N)nc5n4[C@H]4C[C@H](O)[C@@H](CO)O4)ccc4ccc1c2c43

absorption maximum (in CO): 446 nm | absorption maximum (in ClC(Cl)Cl): 488 nm
Structure (SMILES): Cc1nc2c(ccc3c2sc(/C=C/c2ccc(-n4c5ccccc5c5ccccc54)cc2)[n+]3C)s1

absorption maximum (in CS(C)=O): 388 nm
Structure (SMILES): O=[N+]([O-])c1ccc(N/C=C/C=[NH+]c2ccc([N+](=O)[O-])cc2)cc1

absorption maximum (in CCO): 265 nm
Structure (SMILES): CC(C)=N[O-]

absorption maximum (in ClCCl): 315 nm
Structure (SMILES): COc1cc2c(cc1OC)C1=C[C@H](c3ccc(C)cc3)C3(C(C#N)=C(C#N)N1CC2)c1cc(Br)ccc1-c1ccc(Br)cc13

absorption maximum (in ClCCl): 376 nm
Structure (SMILES): c1ccc(-n2c(-c3ccc(N(c4ccc(-c5ccc(N(c6ccc(-c7nc8c9ccccc9c9ccccc9c8n7-c7ccccc7)cc6)c6ccc(-c7nc8c9ccccc9c9ccccc9c8n7-c7ccccc7)cc6)cc5)cc4)c4ccc(-c5nc6c7ccccc7c7ccccc7c6n5-c5ccccc5)cc4)cc3)nc3c4ccccc4c4ccccc4c32)cc1

absorption maximum (in CO): 356 nm | absorption maximum (in ClCCl): 362 nm
Structure (SMILES): CCCCCCN(CCCCCC)c1ccc(C#Cc2ccc(C(F)(F)F)cc2)cc1

absorption maximum (in CC#N): 318 nm | absorption maximum (in CCCCCC): 316 nm
Structure (SMILES): Nc1ccc(/C=C/c2ccccc2)cc1

absorption maximum (in ClCCl): 494 nm
Structure (SMILES): CCCCCN1c2ccccc2Sc2cc(/C=C/c3ccc(/C=C(\C#N)C(=O)O)s3)ccc21

Structure (SMILES): CN(C)c1ccc(/C=C/c2ccc(-c3nnc(-c4ccc(-c5cc6ccccc6s5)cc4)o3)cc2)cc1
absorption maximum (in CC#N): 334 nm | absorption maximum (in CC(C)=O): 337 nm | absorption maximum (in CCCCCCCC): 334 nm | absorption maximum (in CCCCCCCCCCO): 344 nm | absorption maximum (in CCCCCCCCO): 343 nm | absorption maximum (in CCCCCO): 341 nm | absorption maximum (in CCCO): 341 nm | absorption maximum (in CN(C)C=O): 338 nm | absorption maximum (in CO): 335 nm | absorption maximum (in CS(C)=O): 340 nm

Structure (SMILES): CC1=C(Cc2ccccc2)C(C)=[N+]2C1=C(C)c1c(C)c(-c3csc(N4CCOCC4)n3)c(C)n1[B-]2(F)F
absorption maximum (in C1CCOC1): 525 nm | absorption maximum (in C1COCCO1): 524 nm | absorption maximum (in CC#N): 517 nm | absorption maximum (in CC(C)O): 518 nm | absorption maximum (in CCO): 516 nm | absorption maximum (in CCOC(C)=O): 523 nm | absorption maximum (in CN(C)C=O): 526 nm | absorption maximum (in CO): 514 nm | absorption maximum (in CS(C)=O): 522 nm | absorption maximum (in Cc1ccccc1): 527 nm | absorption maximum (in ClC(Cl)Cl): 523 nm | absorption maximum (in ClCCl): 522 nm

absorption maximum (in C1CCCCC1): 415 nm | absorption maximum (in CC#N): 417 nm | absorption maximum (in CO): 416 nm | absorption maximum (in ClCCl): 419 nm
Structure (SMILES): COc1c2ccccc2c(OC)c2c1c1cc(F)ccc1n2C

absorption maximum (in ClCCl): 397 nm
Structure (SMILES): Cc1cccc(C)c1N1C(c2ccccc2)=Cc2cccc[n+]2[B-]1(F)F

Structure (SMILES): CN(C)c1ccc2cc(C3=[O+][B-](F)(F)OC(c4ccc(C#N)cc4)=C3)ccc2c1
absorption maximum (in C1CCOC1): 525 nm | absorption maximum (in CC#N): 539 nm | absorption maximum (in CC(C)=O): 533 nm | absorption maximum (in CS(C)=O): 559 nm | absorption maximum (in Cc1ccccc1): 519 nm | absorption maximum (in ClC(Cl)Cl): 532 nm | absorption maximum (in ClCCl): 539 nm

Structure (SMILES): F[B-]1(F)N(c2ccccc2)C=Cc2cccc[n+]21
absorption maximum (in C1CCCCC1): 442 nm | absorption maximum (in C1CCOC1): 425 nm | absorption maximum (in CC#N): 412 nm | absorption maximum (in CC(C)=O): 422 nm | absorption maximum (in CCO): 418 nm | absorption maximum (in CCOC(C)=O): 427 nm | absorption maximum (in CO): 417 nm | absorption maximum (in O): 396 nm

absorption maximum (in ClCCl): 433 nm
Structure (SMILES): N#Cc1cc(/C=C/c2ccc(N(c3ccccc3)c3ccccc3)cc2)ccc1/C=C/c1ccc(/C=C/c2ccc(N(c3ccccc3)c3ccccc3)cc2)cc1

absorption maximum (in ClCCl): 536 nm
Structure (SMILES): CCOCCOCCOC(=O)/C=C/C1=CC2=C(c3c(C)cc(C)cc3C)c3cccn3[B-](F)(F)[N+]2=C1

absorption maximum (in CC#N): 418 nm
Structure (SMILES): C[n+]1cc2ccc3c[n+](C)cc4ccc(c1)c2c34

absorption maximum (in ClCCl): 422 nm
Structure (SMILES): S=P1(c2ccccc2)c2cccc3c4c5ccccc5c5ccccc5c4c4ccc1n4c23 (centres undefined)

absorption maximum (in C1CCCCC1): 422 nm | absorption maximum (in CC#N): 441 nm | absorption maximum (in CCO): 442 nm
Structure (SMILES): COc1cc(OC)c2c(c1)C(=O)c1ccc(OC)cc1-2

Structure (SMILES): S=P1(c2ccccc2)c2cccc3ccc4ccc1n4c23 (centres undefined)
absorption maximum (in ClCCl): 407 nm

absorption maximum (in ClCCl): 432 nm
Structure (SMILES): CCCCCCCCCCCCN1C(=O)c2c(c3ccc4cc(-c5ccccc5)c(OC)cc4c3c3c2ccc2cc(-c4ccccc4)c(OC)cc23)C1=O

Structure (SMILES): CCCCCCCCCCCCCCCC[n+]1ccc(/C=C/c2ccccc2O)cc1
absorption maximum (in C1COCCO1): 558.2 nm | absorption maximum (in CC(C)=O): 547 nm | absorption maximum (in CC(C)O): 520.4 nm | absorption maximum (in CCCCCC): 530.1 nm | absorption maximum (in CCCCO): 523.4 nm | absorption maximum (in CCCO): 518.9 nm | absorption maximum (in CCO): 518.9 nm | absorption maximum (in CN(C)C=O): 549.1 nm | absorption maximum (in CO): 503.8 nm | absorption maximum (in CS(C)=O): 523.4 nm | absorption maximum (in Cc1ccccc1): 554.2 nm | absorption maximum (in ClC(Cl)(Cl)Cl): 548.4 nm | absorption maximum (in ClC(Cl)Cl): 554.2 nm | absorption maximum (in ClCCl): 553.8 nm | absorption maximum (in c1ccccc1): 553.7 nm

absorption maximum (in CN(C)C=O): 661 nm | absorption maximum (in ClCCl): 426 nm
Structure (SMILES): C1=Cc2nc1c(-c1cccs1)c1ccc([nH]1)c(-c1cccs1)c1nc(c(-c3cccs3)c3ccc([nH]3)c2-c2cccs2)C=C1

absorption maximum (in CC#N): 332 nm
Structure (SMILES): CN(C)c1ccc(-c2nc3cc(C(F)(F)F)ccc3n2-c2ccccc2)cc1

absorption maximum (in ClCCl): 440 nm
Structure (SMILES): CCOC(=O)/N=c1/oc2cc(N(CC)CC)ccc2cc1C#N

absorption maximum (in CC#N): 445 nm
Structure (SMILES): Cn1ccc(-c2nc3ccccc3nc2/C=C/N2CCCC2)c1
